PMC8400955 (Pharmaceuticals, 2021)

Columns and labels:
[1] = Metabolic stability in mouse hepatocytes; format: in vitro ADME
Description: Hepatocytes of humans (#X008001), dogs (#M00205), rats (#M00005), and mice (#M005052) were purchased from BioIVT, NY, USA. Monkey hepatocytes were procured from RILD, Shanghai, China. The metabolic stability of ZB716 in human, monkey, dog, rat and mouse hepatocytes was investigated by incubating ZB716 with human, monkey, dog, rat, and mouse hepatocytes (0.5 × 10^6 cells/mL), or with incubation medium only.
parent disappearance vs. incubation time curve.
Scaled-up Clint = kV/N × Scaling Factor
metabolite formed during the reaction.

CYP2D6 = CYP2D6 (Homo sapiens, UniProt P10635); assay: CYP inhibition in human liver microsomes, CYP2D6; format: in vitro ADME; conditions: HLM, marker substrate Dextromethorphan
Sequence of CYP2D6 (P10635 whole entry): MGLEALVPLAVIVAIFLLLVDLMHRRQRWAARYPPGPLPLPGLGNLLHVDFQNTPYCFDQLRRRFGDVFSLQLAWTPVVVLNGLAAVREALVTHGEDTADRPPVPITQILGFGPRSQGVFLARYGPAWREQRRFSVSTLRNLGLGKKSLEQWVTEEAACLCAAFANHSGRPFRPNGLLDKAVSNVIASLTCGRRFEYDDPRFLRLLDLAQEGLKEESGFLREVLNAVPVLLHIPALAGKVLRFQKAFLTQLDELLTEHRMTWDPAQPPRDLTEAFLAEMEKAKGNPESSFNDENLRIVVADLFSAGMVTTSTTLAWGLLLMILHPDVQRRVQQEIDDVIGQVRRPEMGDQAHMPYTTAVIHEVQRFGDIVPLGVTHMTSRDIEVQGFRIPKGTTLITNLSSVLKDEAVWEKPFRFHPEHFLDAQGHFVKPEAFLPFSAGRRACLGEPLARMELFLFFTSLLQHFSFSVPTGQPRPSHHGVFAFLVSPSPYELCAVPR
Description: . The inhibition of CYP2B6 and 3A4 (when midazolam was used as the substrate) by ZB716 was not observed. The inhibitory potential of ZB716 on human CYP enzyme activities appears relatively low.
The final concentrations of ZB716 in the incubation system were 0, 0.05, 0.15, 0.5, 1.5, 5, and 15 µM (final organic solvent concentration ≤ 1%). […] . […] The concentrations of the isoform-specific metabolites derived from marker substrates were measured by UPLC–MS/MS. The IC50 values were calculated from the percentages of the rate of the metabolite formation relative to non-inhibited controls vs. the concentrations of ZB716 or positive control inhibitors. All incubations were performed in triplicate. The mean of the enzyme activity (% of non-inhibited control) for each concentration was plotted against the log inhibitor concentration, and fitted to an IC50 curve.

[2] = 7-day repeated-dose TK in dogs; format: in vivo; conditions: beagle, dog, plasma, po
Description: The TK of ZB716 was investigated following once-daily administration via oral gavage for 7 consecutive days. Beagle dogs (n = 1/sex) were orally administered ZB716 at dose levels of 100 and 200 mg/kg/day.
The TK of ZB716 was investigated following once-daily administration via oral gavage for 7 consecutive days. The Cmax and AUClast values of ZB716 increased with dose in a greater than dose-proportional manner. However, the exposure in the female given 100 mg/kg/day was higher than that in the female given 200 mg/kg/day on days 1 and 7 (Figure 3). During the study, females had higher exposure at 100 mg/kg/day, and males had higher exposure at 200 mg/kg/day.
Four-to-six-week-old Sprague Dawley rats (Crl: CD (SD)) (SPF/VAF) were purchased from Beijing Vital River Laboratory Animal Technology, Co. Ltd.). Six-month-old beagle dogs were purchased from Beijing Marshall Biotechnology Co. Ltd. Animals were quarantined/acclimated for 2–6 weeks prior to dose initiation. Both Sprague Dawley rats and beagle dogs were given oral administration of ZB716 (20% PG, 5% Solutol, and 75% of 40% HP-β-CD in water) at different dose levels. After treatment with the test articles, whole blood was collected from each study animal by puncture of the tail vein (0.4 mL of whole blood from rats) and/or the peripheral vein (0.6 mL of whole blood from dogs) into tubes containing K2EDTA at each timepoint: pre-dose, and 0.5, 1, 2, 4, 8, and 24 h post-dose. The plasma samples were divided into 2 aliquots (approximately equal in volume) and stored frozen at −75 ± 15 °C within 2 h of the collection until analysis at Pharmaron, China.
The stock solution of ZB716 (5.0 mg/mL) and ZB716-d6 (1 mg/mL) in ACN:DI Water = 1:1 was prepared and stored at −20 ± 5 °C. The desired serial concentrations of working reference analyte solutions were achieved by diluting a stock analyte solution with 50% acetonitrile (0.1% formic acid) in water solution. The bioanalytical LC–MS/MS method was validated for quantitative determination of ZB716 in Sprague Dawley rat plasma and beagle dog plasma, with acceptable selectivity, sensitivity, calibration curve, precision, and accuracy. This method is applicable for the determination of ZB716 in Sprague Dawley rat plasma and beagle dog plasma, with a lower limit of quantification of 20.0 ng/mL, and an upper limit of quantification of 10,000 ng/mL.
Five microliters of diluted supernatant was injected into the LC–MS/MS system (Shimadzu LC30AD HPLC system with a SynergiTM 4 μm Fusion-RP 80 Å (50 × 2 mm) column using gradient elution and a Triple Quad 5500 mass spectrometer) for quantitative analysis. The mobile phases used were 0.1% formic acid in deionized water and 0.1% formic acid in acetonitrile. The pharmacokinetic parameters T1/2 (the biological half-life), Cmax (maximal concentration), Tmax (time at which Cmax is observed), and AUC (area under the plasma concentration–time curve) were calculated from the plasma concentration versus time data using WinNonlin (Phoenix^TM, version 8.1, Mountain View, CA, USA). All PK studies were conducted by Pharmaron in Beijing, China.

CYP1A2 = target: T1, CYP1A2 (Homo sapiens, UniProt P05177); assay: CYP phenotyping, recombinant CYP1A2
T1 sequence (P05177 1-516): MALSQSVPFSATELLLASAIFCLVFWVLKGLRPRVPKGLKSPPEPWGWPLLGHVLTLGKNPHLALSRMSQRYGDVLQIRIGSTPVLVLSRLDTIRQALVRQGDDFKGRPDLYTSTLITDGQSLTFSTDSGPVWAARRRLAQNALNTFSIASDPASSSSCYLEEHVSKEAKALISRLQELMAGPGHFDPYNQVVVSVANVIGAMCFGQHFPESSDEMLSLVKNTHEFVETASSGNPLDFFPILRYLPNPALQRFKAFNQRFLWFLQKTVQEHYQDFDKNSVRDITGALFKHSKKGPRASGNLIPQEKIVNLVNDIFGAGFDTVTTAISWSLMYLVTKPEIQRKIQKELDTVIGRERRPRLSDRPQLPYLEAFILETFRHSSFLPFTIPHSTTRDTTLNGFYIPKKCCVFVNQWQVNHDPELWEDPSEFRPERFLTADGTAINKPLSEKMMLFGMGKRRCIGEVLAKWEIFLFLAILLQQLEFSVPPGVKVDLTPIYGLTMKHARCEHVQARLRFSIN
Description: Bactosomes prepared from E. coli that heterologously expressed individual human CYP isoforms together with human CYP reductase were obtained from CYPEX LTD (Scotland, UK), and stored at −80 °C prior to use. […] Timepoints were taken at 0, 5, 10, 15, 20, and 30 min. Substrate disappearance was used to calculate intrinsic clearance (Clint) and half-life (t1/2). All incubations were performed in triplicate. […] The chemical inhibitors for CYP1A2, 2A6, 2B6, 2C8, 2C9, 2C19, 2D6, and 3A4 were furafylline, tranylcypromine, ticlopidine, montelukast, sulfaphenazole, N-3-benzylnirvanol, quinidine, and ketoconazole, respectively. Timepoints were collected at 0, 15, 30, 45, and 60 min, and the remaining percentage of the parent drug at each timepoint was calculated (the calculation details are available in the Supplementary Materials). All incubations were performed in triplicate.
The slope, k, was determined by linear regression of the natural logarithm of percent parent disappearance vs. incubation time curve. Peak areas for test article and internal standard were determined from extracted ion chromatograms. The peak area ratio was used to calculated for the results.
The half-life value (t1/2 rCYPi) was determined from the slope value:
Conversion of the t1/2 rCYPi (in min) into the intrinsic clearance (Clint rCYPi in μL/min/pmol) was done using the following equation: […]

[3] = female, 100 mg/kg/day, day 1, PO 100 mg/kg/day, F
[4] = female, 100 mg/kg/day, day 7, PO 100 mg/kg/day, F
[5] = female, 200 mg/kg/day, day 1, PO 200 mg/kg/day, F
[6] = female, 200 mg/kg/day, day 7, PO 200 mg/kg/day, F
[7] = male, 100 mg/kg/day, day 1, PO 100 mg/kg/day, M
[8] = male, 100 mg/kg/day, day 7, PO 100 mg/kg/day, M
[9] = male, 200 mg/kg/day, day 1, PO 200 mg/kg/day, M
[10] = male, 200 mg/kg/day, day 7, PO 200 mg/kg/day, M

C[C@]12CC[C@@H]3c4ccc(B(O)O)cc4C[C@@H](CCCCCCCCC[S+]([O-])CCCC(F)(F)C(F)(F)F)[C@H]3[C@@H]1CC[C@@H]2O (stereo partly shown) [ZB716, fulvestrant-3-boronic acid]
half-life at 1 μM ([1]; read-out: Estimated In Vitro t1/2): 0.573 ± 0.01 h | hepatocyte CLint at 1 μM ([1]; read-out: In Vitro Clint): 40.3 ± 0.7 µL/min/1e6 cells | CLint scaled at 1 μM ([1]; read-out: Scaled-Up Clint): 476 ± 8 mL/min/kg | IC50 (CYP2D6): 12.5 µM | Tmax at 7 days ([2]; both sexes, 200 mg/kg/day, 7-day repeat oral administration, 100 and 200 mg/kg/day, mostly): 0.5 to 2 h | AUC(0-t) [2, 3]: 55600 ng·h/mL | Cmax [2, 3]: 7210 ng/mL | Tmax [2, 3]: 2 h | AUC(0-t) [2, 4]: 81100 ng·h/mL | Cmax [2, 4]: 12300 ng/mL | Tmax [2, 4]: 4 h | AUC(0-t) [2, 5]: 9780 ng·h/mL | Cmax [2, 5]: 1740 ng/mL | Tmax [2, 5]: 1 h | AUC(0-t) [2, 6]: 46700 ng·h/mL | Cmax [2, 6]: 8420 ng/mL | Tmax [2, 6]: 2 h | AUC(0-t) [2, 7]: 5070 ng·h/mL | Cmax [2, 7]: 1350 ng/mL | Tmax [2, 7]: 1 h | AUC(0-t) [2, 8]: 17800 ng·h/mL | Cmax [2, 8]: 3430 ng/mL | Tmax [2, 8]: 1 h | AUC(0-t) [2, 9]: 52200 ng·h/mL | Cmax [2, 9]: 8430 ng/mL | Tmax [2, 9]: 2 h | AUC(0-t) [2, 10]: 103000 ng·h/mL | Cmax [2, 10]: 18300 ng/mL | Tmax [2, 10]: 2 h | half-life at 2 µM (CYP1A2; human): 0.27 ± 0.0367 h | Clint (CYP1A2; recombinant CYP1A2, 2 µM ZB716): 0.866 ± 0.120 µL/min/pmol CYP
